The text below walks through data of patent US9820981B2, “Treatment of retinopathy of prematurity (ROP)” (The Cleveland Clinic Foundation, priority 2013, dated 2017).

For test [1], the system named is oxygen-induced retinopathy (OIR). In words: Oxygen-induced retinopathy (OIR) mouse model, retinal flatmounts. The test is classed as in vivo. Particulars: for reduction of capillary dropout in retinal flatmounts (percent avascular area of total retinal area): P17, each at optimal dose (10 μg/g FG-4592, 200 μg/g DMOG) i.p. at P6, P8, P10. The procedure: The PBS-treated pup has an ischemic, posterior retina compared to the FG-4592-treated pup. Pups were treated with intraperitoneal injection of 10 μg/g body weight FG-4592 at P6, P8, and P10 while in 75% hyperoxia. At P12, pups were removed to room air with their nursing mothers and sacrificed at P17. Eyes were removed and fixed for 15 minutes in fresh 4% paraformaldehyde (PFA) before isolating whole retina, permeabilizing and lectin staining, then flat mounting for fluorescence microscopy.
An automated computer program (ImagePro version 7.0) measures capillary dropout and neovascular tufting seen in 3B.
The mouse model of ROP used in this study is based on a well-established protocol by Smith et al. (L. E. Smith, E. Wesolowski, A. McLellan, S. K. Kostyk, R. D'Amato, R. Sullivan, and P. A. D'Amore. Oxygen-induced retinopathy in the mouse. Investigative ophthalmology & visual science. 35:101-111 (1994)) that involves exposing pups and their nursing mothers to 5 days of hyperoxia (75% oxygen) during P7 through P12 in the wild type C57BL6 (WT) pups. A Plexiglas incubator with an oxygen sensor and feedback system ProOx (Biospherix, Lacona, N.Y.) was used to ensure continuous hyperoxia. Animals were injected intraperitoneally with FG-4592 (10 μg/g), DMOG (200 μg/g) or control PBS in the equivalent volume at P6, P8, and P10. […] Flatmount preparation and lectin (GS-IB4-Alexa568, Life Technologies, Grand Island, N.Y.) staining was performed essentially as described elsewhere (K. M. Connor, N. M. Krah, R. J. Dennison, C. M. Aderman, J. Chen, K. I. Guerin, P. Sapieha, A. Stahl, K. L. Willett, and L. E. Smith. Quantification of oxygen-induced retinopathy in the mouse: a model of vessel loss, vessel regrowth and pathological angiogenesis. Nat Protoc. 4:1565-1573 (2009); A. Stahl, K. M. Connor, P. Sapieha, K. L. Willett, N. M. Krah, R. J. Dennison, J. Chen, K. I. Guerin, and L. E. Smith. Computer-aided quantification of retinal neovascularization. Angiogenesis. 12:297-301 (2009)). Retinas were dissected using four radial cuts, and flatmounted onto glass slides with Vectashield (Vector Labs, Burlingame, Calif.). All animal procedures were performed in accordance with the Cleveland Clinic Institutional Animal Care and Use Committee.
For quantitative analysis of avascular area, vascular tortuosity, and tufting, retinal images were batch processed using a customized macro and algorithms generated in Image-Pro Plus 7.0 (Media Cybernetics, Silver Spring, Md.) as previously described (J. E. Sears, G. Hoppe, Q. Ebrahem, and B. Anand-Apte. Prolyl hydroxylase inhibition during hyperoxia prevents oxygen-induced retinopathy. Proceedings of the National Academy of Sciences of the United States of America. 105:19898-19903 (2008)).
FG-4592 was solubilized as a stock solution of […] in DMSO, which was then diluted 50 times in PBS to a concentration of 1 μg/microliter to facilitate a final dose of 10 μg/g body weight of each mouse pup. Three injections were administered during the hyperoxic phase of oxygen-induced retinopathy (OIR) at 48-hour intervals.

Test [2] concerns EPO. In words: Serum EPO ELISA. The test is classed as in vivo. The note with it: P8 mouse pups. The protocol:
(§1) Wild-type (WT) and HIF-1α knock-out (KO) P8 mouse pups were injected with 10 μg/g FG-4592 and, following indicated periods of time, the pups were anesthetized by ketamine/xylazine, blood was drawn using heparinized 27-gauge needle and syringe. Serum was diluted 1:10 (EPO), 1:5 (VEGF) or 1:100 (ANGPTL-3) with sample diluent provided by the manufacturer (R&D Systems, Minneapolis, Minn.). Spectrophotometric measurements of EPO, VEGF, and ANGPTL-3 quantities were obtained according to the manufacturer's instructions.

The test system of test [3] is angiopoietin-like protein 3 (ANGPTL-3). In words: Serum ANGPTL-3 ELISA. The note with it: P8 mouse pups. It is filed as in vivo. The procedure: as §1
A general note: ELISA stands for enzyme-linked immunosorbent assay.

Test [4] relates to HIF prolyl hydroxylase (PHD). In words: In vivo localization of PHD inhibition in luc-ODD mouse (luminescence imaging, luciferase activity in organ lysates). Particulars: for localization of luminescence, whole animal imaging: luc-ODD mouse. The protocol:
Gt(ROSA)26Sor^tml(Luc)Kael (luc-ODD) mice were obtained from the Jackson Laboratory (Bar Harbor, Me.). Pups were given i.p. injections of 10 μg/g FG-4592 at indicated periods of time prior to live imaging. Mice were injected with mixture of 100 mg/kg ketamine, 10 mg/kg xylazine and 50 mg/kg luciferin and placed in a light-tight chamber connected to a supercooled, charge-coupled camera. Photons were collected for 15 seconds using IVI 100 Imaging System (PerkinElmer, Waltham, Mass.).
The luc-ODD mouse has a transgene comprised of luciferase fused to the ODD and, therefore, serves as a reporter gene in vivo of where hydroxylation of the ODD is inhibited, observed as luminescence in tissue lysates and whole animal imaging.
Quantitation of the effect shown in FIG. 4A supports the specificity of this effect in tissue lysates.

The test system of test [5] is serum erythropoietin (Epo), a HIF-regulated gene product. In words: Immunoblot of serum erythropoietin (Epo) response after single intraperitoneal injection. It is filed as in vivo. Particulars: P8 mouse pups, serum 6 hours after a single intraperitoneal injection.
The subject of test [6] is VEGF. In words: Serum VEGF ELISA. The test is classed as in vivo. Particulars: P8 mouse pups. The procedure:
as §1

Test [7] concerns Hepatic EPO, VEGFA and ANGPTL3 mRNA. The experiment in a line: Reverse transcription and quantitative PCR of hepatic mRNA. It is filed as in vivo, mouse. The note with it: data not shown. The procedure: Tissue from liver, kidney, brain and retina were placed into 1 mL of RNAlater reagent (Qiagen, Germantown, Md.) and stored at −80° C. Total RNA was extracted using RNeasy kit (Qiagen) and measured using NanoDrop and standard spectrophotometric parameters. One μg of total RNA from each sample was retrotranscripted to cDNA using QuantiTect Reverse Transcription Kit (Qiagen). One μl of cDNA samples was used as template for amplification reactions carried out with the QuantiTect SYBR Green PCR kit (Qiagen) following the manufacturer's instructions. PCR amplifications were performed in a 7900HT Fast Real-Time PCR system (Applied Biosystems, Foster City, Calif.) and quantitative PCR data analysis was performed with RQ Managed software (Applied Biosystems).

The test system of test [8] is HIF-1α. The experiment in a line: Western blot of HIF-1α protein in organ lysates. The test is classed as in vivo. Particulars: mouse pups, versus PBS. The protocol:
Mice were sacrificed by ketamine/xylazine overdose, organs collected and placed in RIPA buffer (200 μL per 50 mg of tissue, pH 7.0) containing protease inhibitors Complete (Roche, Indianapolis, Ind.), disrupted using a tight fitting microtube pestle, and centrifuged to remove particulate matter. A Pierce BCA protein assay (Thermo Scientific, Rockford, Ill.) was used to measure protein concentrations. Lysates were subjected to 4-20% SDS-PAGE and electro-transferred to PVDF membranes for immunoblotting. Membranes were blocked with 5% nonfat dried milk in Tris-buffered saline and 0.1% Tween-20, then probed with anti-HIF-1α, antibody (Cayman Chemical, Ann Arbor, Mich.) overnight. After washing and secondary antibody hybridization, membranes were exposed by chemiluminescence (Western Lighting, PerkinElmer, Waltham, Mass.).
FIG. 5A is images of Western blots detecting HIF-1α protein in organ lysates derived from pups treated with PBS or FG-4592, and FIG. 5B is a graph of integrated optical density of the immunoblots shown in FIG. 5A.
A general note: A western blot detects proteins with antibodies after separation by electrophoresis.

Where [9] appears, read: murine OIR model, 10 eyes each group.

As for `COC(=O)CNC(=O)C(=O)OC` [DMOG, dimethyl oxaloylglycine], in test [1] (versus PBS), the “reduction of capillary dropout in retinal flatmounts (percent avascular area of total retinal area)” value is on record as 3 fold.

In the case of `Cc1nc(C(=O)NCC(=O)O)c(O)c2ccc(Oc3ccccc3)cc12` [FG-4592], in test [2] (10 μg/g FG-4592 i.p.), the “circulating (serum) levels of EPO” value is listed as “marked increase”. In addition, in test [2] (time-course study), the “time of peak EPO production after treatment” value worked out at 3 h. Also, the “elevation of ANGPTL-3 in serum” value in test [3] (10 μg/g FG-4592 i.p.) is given as 6 fold. In addition, the “time course of ANGPTL-3 induction” value in test [3] (time-course study) is “sustained induction, even 24 hours after FG-4592 treatment”. Also, the “organ specificity, luciferase activity (RLU/mg tissue protein) in organ lysates” value in test [4] (luc-ODD mice, s.c. or i.p. injection, versus PBS) was “specificity of FG-4592 for liver and kidney”. Also, the “localization of luminescence, whole animal imaging” value in test [4] (i.p. injection) was “liver- and kidney-specific luminescence”; in test [4] (s.c. injection), “liver- and kidney-specific luminescence”. Moreover, in test [4] (single intraperitoneal injection, time course in kidney and lung), the “duration of HIF PHD inhibition” value is recorded as “at least 24 hours”. Moreover, the “potency relative to DMOG, quantification of serum Epo immunoblot” value in test [5] is “approximately fifteen times more potent than DMOG”. Moreover, the “preservation of retinal vessels in retinal flatmounts” value in test [1] (10 μg/g i.p. at P6, P8, P10 in 75% hyperoxia, sacrificed P17, versus PBS) is “preservation of retinal vessels”. Besides, in test [1] (OIR model, 10 μg/g FG-4592 versus 200 μg/g DMOG), the “benefit in direct comparison with DMOG” value is “at least the same benefit as DMOG, with a trend to superiority of FG-4592”. For the same molecule, the “ischemic, hypoxic retina (isolectin and Hypoxyprobe staining)” value in test [1] (P17, versus sham PBS injection) is reported as “decrease in ischemic, hypoxic retina at P17”. Moreover, in test [1] (versus PBS), the “reduction of capillary dropout in retinal flatmounts (percent avascular area of total retinal area)” value amounted to 3 fold. The “rate of decrease of central avascular region (retinovascular repair)” value in test [1] (flatmounts at P12, P15, P17, treated versus PBS) is “identical rates of decrease of this region in treated and untreated animals”. Besides, the “inhibition of capillary drop-out compared with DMOG” value in test [1] (setting [9]) is “inhibits capillary drop-out better than DMOG”. For the same molecule, the “inhibition of neovascularization subsequent to capillary drop-out compared with DMOG” value in test [1] (setting [9]) is “inhibits neovascularization subsequent to capillary drop-out better than DMOG”. The “serum levels of VEGF” value in test [6] (10 μg/g FG-4592 i.p.) is reported as “moderate but statistically significant increase”. The “time of peak VEGF levels after treatment” value in test [6] (time-course study) came out at 6 h. In test [7], the “Hepatic EPO, VEGFA and ANGPTL3 mRNA levels and kinetics” value was “mirrored their corresponding serum protein concentrations”. In addition, in test [8], the “organ specific stabilization of HIF-1α protein (integrated optical density)” value was “maximal increase in HIF-1α in liver and kidney lysates”.
